Experimental data from patent publication US11111247B2, “Pyrazolopyrimidine compounds and uses thereof” (Incyte Corporation, priority 2018, dated 2021).
Like-named read-outs stand apart in the source and are kept apart here.

What was measured:
ALK2 (aa 147-end) = ALK2 (aa 147-end) (Homo sapiens (Human), UniProt Q04771); assay: ALK2 HTRF Assay; format: biochemical
FGFR3 (UP) = FGFR3 (UP) (Homo sapiens (Human), UniProt P22607); assay: FGFR Enzymatic Assay, FGFR3 un-phosphorylated
FGFR2 (UP) = FGFR2 (UP) (Homo sapiens (Human), UniProt P21802); assay: FGFR Enzymatic Assay, FGFR2 un-phosphorylated
Procedure: The inhibitor potency of the exemplified compounds was determined in an enzyme discontinuous assay that measures peptide phosphorylation using FRET measurements to detect product formation. Inhibitors were serially diluted in DMSO and a volume of 0.2 μL was transferred to the wells of a 384-well plate. For the isoforms of FGFR (−1, −2, −3 wild-type and mutant isoforms, −4) including phosphorylated (P) and un-phosphorylated (UP) proteins, a 5 μL/well volume of enzyme diluted in assay buffer (50 mM HEPES, 10 mM MgCl2, 1 mM EGTA, 0.01% Tween-20, 5 mM DTT, pH 7.5) was added to the plate and pre-incubated with inhibitor for 5 to 15 minutes at ambient temperature. Appropriate controls (enzyme blank and enzyme with no inhibitor) were included on the plate. The reaction was initiated by the addition of a 5 μL/well volume containing both biotinylated [sequence] […] The plate was allowed to equilibrate for −10 minutes at ambient temperature before scanning on a PheraStar plate reader (BMG Labtech) instrument.
Either GraphPad prism or XLfit was used to analyze the data. The IC50 values were derived by fitting the data to a four parameter logistic equation producing a sigmoidal dose-response curve with a variable Hill coefficient. Prism equation: Y=Bottom+(Top−Bottom)/(1+10^((LogIC50−X)*Hill slope)); XLfit equation: Y=(A+((B−A)/(1+((X/C)^D)))) where X is the logarithm of inhibitor concentration and Y is the response.

ALK2 = ALK2 (Homo sapiens (Human), UniProt Q04771); assay: ALK2 Cellular Assay (phospho SMAD1 HTRF, BMP-7 stimulated HeLa cells); format: cell-based; settings: read-out: ALK2 Cellular Assay PSMAD
Method in brief: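 HeLa cells pre-treated with compound (highest final 3 μM) for 60 min at 37° C, then stimulated with 200 ng/ml BMP-7 for 30 min. Phospho-SMAD1 (S463/S465) quantified by HTRF after overnight room-temperature incubation.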

FGFR1 (UP) = FGFR1 (UP) (Homo sapiens (Human), UniProt P11362); assay: FGFR Enzymatic Assay, FGFR1 un-phosphorylated
[1] = read-out: ALK2 3 μM IC50, 3 uM ATP
[2] = read-out: ALK2 100 μM IC50, 100 uM ATP
[3] = read-out: FGFR3 (UP) IC50, un-phosphorylated enzyme, ATP near or below Km
[4] = read-out: FGFR2 (UP) IC50, un-phosphorylated enzyme, ATP near or below Km
[5] = read-out: FGFR1 (UP) IC50, un-phosphorylated enzyme, ATP near or below Km
[6] = HeLa cells, 200 ng/ml BMP-7, Phospho SMAD1 (S463/S465) HTRF
[7] = read-out: ALK2 1 mM IC50, 1 mM ATP

Chain of FGFR1 (UP) (P11362 22-822): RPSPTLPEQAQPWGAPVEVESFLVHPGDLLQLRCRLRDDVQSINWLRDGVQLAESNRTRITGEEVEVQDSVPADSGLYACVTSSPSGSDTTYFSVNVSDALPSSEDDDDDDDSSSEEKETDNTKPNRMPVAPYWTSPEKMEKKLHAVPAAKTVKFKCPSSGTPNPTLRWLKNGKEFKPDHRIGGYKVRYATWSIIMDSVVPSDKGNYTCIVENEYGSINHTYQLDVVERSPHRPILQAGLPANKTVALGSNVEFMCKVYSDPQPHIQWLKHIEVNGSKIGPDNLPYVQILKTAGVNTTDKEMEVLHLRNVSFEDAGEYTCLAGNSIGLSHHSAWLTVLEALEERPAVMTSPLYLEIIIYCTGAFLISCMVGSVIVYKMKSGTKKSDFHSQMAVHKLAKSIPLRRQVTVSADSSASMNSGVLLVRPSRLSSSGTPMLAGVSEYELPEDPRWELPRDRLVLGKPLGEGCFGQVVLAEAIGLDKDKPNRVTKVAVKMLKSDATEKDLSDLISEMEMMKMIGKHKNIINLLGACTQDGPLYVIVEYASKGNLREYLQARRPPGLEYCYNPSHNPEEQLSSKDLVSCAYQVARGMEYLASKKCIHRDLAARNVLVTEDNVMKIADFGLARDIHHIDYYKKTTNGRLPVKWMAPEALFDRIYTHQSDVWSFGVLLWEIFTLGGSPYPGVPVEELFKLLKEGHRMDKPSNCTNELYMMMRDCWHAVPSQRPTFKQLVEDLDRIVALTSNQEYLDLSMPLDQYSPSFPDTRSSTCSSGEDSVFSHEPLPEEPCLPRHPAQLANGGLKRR
Chain of FGFR3 (UP) (P22607 23-806): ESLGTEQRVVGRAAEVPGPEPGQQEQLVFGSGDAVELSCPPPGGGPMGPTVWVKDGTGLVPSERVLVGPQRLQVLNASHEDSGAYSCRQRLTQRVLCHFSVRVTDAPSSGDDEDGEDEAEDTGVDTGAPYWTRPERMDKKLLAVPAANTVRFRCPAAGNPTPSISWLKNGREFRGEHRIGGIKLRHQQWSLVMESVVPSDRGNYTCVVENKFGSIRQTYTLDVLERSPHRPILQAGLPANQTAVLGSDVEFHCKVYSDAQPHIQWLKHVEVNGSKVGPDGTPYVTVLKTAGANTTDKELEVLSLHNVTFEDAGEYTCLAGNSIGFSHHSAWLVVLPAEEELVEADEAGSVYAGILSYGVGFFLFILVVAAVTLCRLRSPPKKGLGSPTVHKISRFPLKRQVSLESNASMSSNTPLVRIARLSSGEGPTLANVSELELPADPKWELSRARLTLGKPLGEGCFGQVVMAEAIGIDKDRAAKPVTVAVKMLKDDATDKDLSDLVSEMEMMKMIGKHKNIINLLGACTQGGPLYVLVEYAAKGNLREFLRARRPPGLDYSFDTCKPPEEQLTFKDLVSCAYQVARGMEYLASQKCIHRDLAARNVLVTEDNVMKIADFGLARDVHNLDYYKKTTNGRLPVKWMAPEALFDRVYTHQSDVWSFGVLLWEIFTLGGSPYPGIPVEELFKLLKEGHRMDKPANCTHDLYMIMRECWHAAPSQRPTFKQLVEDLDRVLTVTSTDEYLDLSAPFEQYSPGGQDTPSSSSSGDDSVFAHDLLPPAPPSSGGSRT
Chain of FGFR2 (UP) (P21802 22-821): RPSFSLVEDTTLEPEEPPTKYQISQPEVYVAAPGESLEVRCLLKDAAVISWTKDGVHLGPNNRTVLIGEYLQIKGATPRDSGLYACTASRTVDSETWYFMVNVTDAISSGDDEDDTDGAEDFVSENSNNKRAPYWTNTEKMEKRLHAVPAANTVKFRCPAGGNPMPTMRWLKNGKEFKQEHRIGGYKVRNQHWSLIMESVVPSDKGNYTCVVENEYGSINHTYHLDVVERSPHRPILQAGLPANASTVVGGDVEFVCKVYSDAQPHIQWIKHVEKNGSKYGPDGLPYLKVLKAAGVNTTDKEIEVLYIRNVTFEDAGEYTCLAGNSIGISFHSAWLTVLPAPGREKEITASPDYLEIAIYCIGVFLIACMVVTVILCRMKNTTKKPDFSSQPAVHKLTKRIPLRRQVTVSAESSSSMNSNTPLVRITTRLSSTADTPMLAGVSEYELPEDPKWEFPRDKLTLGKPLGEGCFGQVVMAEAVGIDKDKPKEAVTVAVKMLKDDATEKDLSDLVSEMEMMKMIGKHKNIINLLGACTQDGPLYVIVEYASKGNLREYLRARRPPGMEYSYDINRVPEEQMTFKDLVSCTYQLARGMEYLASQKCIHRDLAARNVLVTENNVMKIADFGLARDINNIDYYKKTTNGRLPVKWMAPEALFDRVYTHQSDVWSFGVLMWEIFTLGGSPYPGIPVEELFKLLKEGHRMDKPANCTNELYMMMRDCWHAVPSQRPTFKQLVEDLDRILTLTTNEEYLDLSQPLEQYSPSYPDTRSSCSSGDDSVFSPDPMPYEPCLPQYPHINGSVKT
Chain of ALK2 (aa 147-end) (Q04771 147-509): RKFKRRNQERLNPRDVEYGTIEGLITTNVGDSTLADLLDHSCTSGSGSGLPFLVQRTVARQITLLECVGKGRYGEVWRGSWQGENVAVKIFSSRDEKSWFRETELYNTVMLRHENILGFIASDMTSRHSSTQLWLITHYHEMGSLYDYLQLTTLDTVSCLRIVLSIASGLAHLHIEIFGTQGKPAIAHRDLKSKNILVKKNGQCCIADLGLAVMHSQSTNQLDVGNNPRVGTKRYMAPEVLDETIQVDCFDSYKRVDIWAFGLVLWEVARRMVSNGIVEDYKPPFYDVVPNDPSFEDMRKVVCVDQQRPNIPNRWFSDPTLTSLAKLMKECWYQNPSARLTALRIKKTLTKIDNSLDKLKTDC
Chain of ALK2 (Q04771 21-509): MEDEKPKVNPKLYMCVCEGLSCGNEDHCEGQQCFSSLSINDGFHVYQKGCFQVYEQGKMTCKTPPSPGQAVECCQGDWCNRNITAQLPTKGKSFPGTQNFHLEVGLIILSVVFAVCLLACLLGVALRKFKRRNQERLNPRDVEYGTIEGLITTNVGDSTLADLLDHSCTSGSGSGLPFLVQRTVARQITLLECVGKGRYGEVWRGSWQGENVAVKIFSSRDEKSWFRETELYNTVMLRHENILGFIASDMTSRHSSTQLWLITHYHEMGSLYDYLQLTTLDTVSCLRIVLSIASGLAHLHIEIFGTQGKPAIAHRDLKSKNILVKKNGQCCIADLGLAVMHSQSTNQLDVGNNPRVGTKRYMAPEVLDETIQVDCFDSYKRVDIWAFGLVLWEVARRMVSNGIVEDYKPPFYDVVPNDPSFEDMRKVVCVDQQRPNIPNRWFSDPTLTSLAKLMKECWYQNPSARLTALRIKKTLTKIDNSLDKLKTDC

## C[C@@H]1CN(c2ccc(-c3n[nH]c4cnc(N5[C@@H]6CC[C@H]5CN(C(=O)N5CCCC5)C6)nc34)cn2)CCN1 [Example 14, ((1R,5S)-8-(3-(6-((R)-3-Methylpiperazin-1-yl)pyridin-3-yl)-1H-pyrazolo[4,3-d]pyrimidin-5-yl)-3,8-diazabicyclo[3.2.1]octan-3-yl)(pyrrolidin-1-yl)methanone]
ALK2 (aa 147-end); ALK2 1 mM IC50, 1 mM ATP
  IC50: 100 to 500 nM
ALK2 (aa 147-end); [1]
  IC50: < 100 nM
ALK2 (aa 147-end); [2]
  IC50: < 100 nM
FGFR3 (UP); [3]
  IC50: > 2000 nM
FGFR2 (UP); [4]
  IC50: > 2000 nM
ALK2
  IC50: 100 to 500 nM
FGFR1 (UP); [5]
  IC50: > 2000 nM

## C[C@@H]1CN(c2ccc(-c3n[nH]c4cnc(N5C6CCC5CC6)nc34)cn2)CCN1 [Example 3, 5-(7-Azabicyclo[2.2.1]heptan-7-yl)-3-(6-((R)-3-methylpiperazin-1-yl)pyridin-3-yl)-1H-pyrazolo[4,3-d]pyrimidine]
ALK2 (aa 147-end); ALK2 1 mM IC50, 1 mM ATP
  IC50: 100 to 500 nM
ALK2 (aa 147-end); [1]
  IC50: < 100 nM
ALK2 (aa 147-end); [2]
  IC50: < 100 nM
FGFR3 (UP)
  IC50: 100 to 500 nM
FGFR2 (UP)
  IC50: 100 to 500 nM
ALK2; [6]
  IC50: 100 to 500 nM
FGFR1 (UP)
  IC50: 500 to 2000 nM

## COC(=O)N1C[C@@H](C)N(c2ncc3[nH]nc(-c4ccc(N5CCN[C@H](C)C5)nc4)c3n2)[C@@H](C)C1 [Example 17, Methyl (3R,5S)-3,5-dimethyl-4-(3-(6-((R)-3-methylpiperazin-1-yl)pyridin-3-yl)-1H-pyrazolo[4,3-d]pyrimidin-5-yl)piperazine-1-carboxylate]
ALK2 (aa 147-end); [1]
  IC50: < 100 nM
ALK2 (aa 147-end); [2]
  IC50: < 100 nM
ALK2 (aa 147-end); [7]
  IC50: < 100 nM
FGFR3 (UP); [3]
  IC50: < 100 nM
FGFR2 (UP); [4]
  IC50: < 100 nM
ALK2; [6]
  IC50: < 100 nM

## C[C@@H]1CN(c2ccc(-c3n[nH]c4cnc(N5C[C@@H]6C[C@H]5CN6C(=O)N5CCCC5)nc34)cn2)CCN1 [Example 21, ((1S,4S)-5-(3-(6-((R)-3-Methylpiperazin-1-yl)pyridin-3-yl)-1H-pyrazolo[4,3-d]pyrimidin-5-yl)-2,5-diazabicyclo[2.2.1]heptan-2-yl)(pyrrolidin-1-yl)methanone]
ALK2 (aa 147-end); ALK2 1 mM IC50, 1 mM ATP
  IC50: 100 to 500 nM
ALK2 (aa 147-end); [1]
  IC50: < 100 nM
ALK2 (aa 147-end); [2]
  IC50: < 100 nM
FGFR3 (UP); [3]
  IC50: > 2000 nM
FGFR2 (UP); [4]
  IC50: > 2000 nM
ALK2; [6]
  IC50: 500 to 2000 nM
FGFR1 (UP); [5]
  IC50: > 2000 nM

## COC(=O)N1C[C@@H](C)N(c2ncc3[nH]nc(-c4ccc(N5CCN(C)[C@H](C)C5)nc4)c3n2)[C@@H](C)C1 [Example 33, Methyl (3R,5S)-4-(3-(6-((R)-3,4-dimethylpiperazin-1-yl)pyridin-3-yl)-1H-pyrazolo[4,3-d]pyrimidin-5-yl)-3,5-dimethylpiperazine-1-carboxylate]
ALK2 (aa 147-end); [1]
  IC50: < 100 nM
ALK2 (aa 147-end); [2]
  IC50: < 100 nM
ALK2 (aa 147-end); [7]
  IC50: < 100 nM
FGFR3 (UP); [3]
  IC50: < 100 nM
FGFR2 (UP)
  IC50: 100 to 500 nM
ALK2; [6]
  IC50: < 100 nM
FGFR1 (UP)
  IC50: 100 to 500 nM

## COCC(=O)N1C[C@@H](C)N(c2ncc3[nH]nc(-c4ccc(N5CCN[C@H](C)C5)nc4)c3n2)[C@@H](C)C1 [Example 6, 1-((3R,5S)-3,5-Dimethyl-4-(3-(6-((R)-3-methylpiperazin-1-yl)pyridin-3-yl)-1H-pyrazolo[4,3-d]pyrimidin-5-yl)piperazin-1-yl)-2-methoxyethan-1-one]
ALK2 (aa 147-end); [1]
  IC50: < 100 nM
ALK2 (aa 147-end); [2]
  IC50: < 100 nM
ALK2 (aa 147-end); [7]
  IC50: < 100 nM
FGFR3 (UP)
  IC50: 500 to 2000 nM
FGFR2 (UP)
  IC50: 500 to 2000 nM
ALK2; [6]
  IC50: 100 to 500 nM
FGFR1 (UP); [5]
  IC50: > 2000 nM

## C[C@@H]1CN(c2ccc(-c3n[nH]c4cnc(N5CC6CCC5CN6C(=O)N5CCCC5)nc34)cn2)CCN1 (stereo partly drawn) [Example 20, (5-(3-(6-((R)-3-Methylpiperazin-1-yl)pyridin-3-yl)-1H-pyrazolo[4,3-d]pyrimidin-5-yl)-2,5-diazabicyclo[2.2.2]octan-2-yl)(pyrrolidin-1-yl)methanone]
ALK2 (aa 147-end); ALK2 1 mM IC50, 1 mM ATP
  IC50: 100 to 500 nM
ALK2 (aa 147-end); [1]
  IC50: < 100 nM
ALK2 (aa 147-end); [2]
  IC50: < 100 nM
FGFR3 (UP); [3]
  IC50: > 2000 nM
FGFR2 (UP)
  IC50: 500 to 2000 nM
ALK2; [6]
  IC50: 100 to 500 nM
FGFR1 (UP)
  IC50: 500 to 2000 nM

## C[C@@H]1CN(c2ccc(-c3n[nH]c4cnc(N5[C@H](C)CN(C(=O)OCCF)C[C@@H]5C)nc34)cn2)CCN1 [Example 12, 2-Fluoroethyl (3R,5S)-3,5-dimethyl-4-(3-(6-((R)-3-methylpiperazin-1-yl)pyridin-3-yl)-1H-pyrazolo[4,3-d]pyrimidin-5-yl)piperazine-1-carboxylate]
ALK2 (aa 147-end); [1]
  IC50: < 100 nM
ALK2 (aa 147-end); [2]
  IC50: < 100 nM
ALK2 (aa 147-end); [7]
  IC50: < 100 nM
FGFR3 (UP)
  IC50: 100 to 500 nM
FGFR2 (UP)
  IC50: 100 to 500 nM
ALK2; [6]
  IC50: < 100 nM
FGFR1 (UP)
  IC50: 500 to 2000 nM
